According to publication PMC7413516, “Antidepressant-like activity and safety profile evaluation of 1H-imidazo[2,1-f]purine-2,4(3H,8H)-dione derivatives as 5-HT1A receptor partial agonists” (PLoS ONE, 2020):
Read-outs that look alike come from different tables or passages of the source.

Assay: Pharmacokinetic study in mice, plasma and brain structures, LC/MS/MS
Format: in vivo, Swiss albino mice
Conditions: Swiss albino, mouse, ip, 1.25 mg/kg i.p.
Experimental: Blood samples from the Swiss albino mice were collected at 0 (pre-dose), 5, 15, 30, 60, 120, 240 and 480 min after a compound administration. The blood samples and brain structures were collected under general anesthesia induced by i.p. injection of 50 mg/kg ketamine plus 8 mg/kg xylazine. The blood samples were taken into heparinized tubes, immediately centrifuged at 1000 × g for 10 min, and plasma was collected. The plasma samples and brain structures were immediately frozen at -30°C and -80°C, respectively.
The plasma and tissue sample pretreatment procedure involved acetonitrile precipitation. A 5 μL aliquot of the IS working solution (100 ng/mL) was added to 50 μL of the collected mouse plasma sample, which was then vortex-mixed for 10 seconds. Thereafter, 200 μL of acetonitrile was added, vortexed during 20 min, and then centrifuged (1000 × g, 10 min). The supernatant (100 μL) was then transferred to insert placed in an autosampler vial, and a 10 μL volume of this was injected onto the HPLC column. Tissue samples were thawed before use, and whole hippocampus, striatum and frontal cortex were weighted and placed in a glass mortar and pestle tissue grinder and homogenized with an appropriate amount of phosphate buffer (pH 7.4) in 1:5 ratio. Afterward, 50 μL of tissue homogenates were transferred to new Eppendorf tubes and spiked with 5 μL of the internal standard working solution. All samples were stored on ice during the preparation process. This was followed by procedures like those described above.
The LC/ESI-MS/MS experiments were performed on an Applied Biosystems/MDS Sciex (Concord, Ontario, Canada) API 2000 triple quadrupole mass spectrometer equipped with an electrospray (ESI) ionization interface. This instrument was coupled to an Agilent 1100 (Agilent Technologies, Waldbronn, Germany) LC system. Data acquisition and processing were accomplished using Sciex Analyst 1.4.2 data collection and integration software.
An XBridge C18 (2.1 x 30 mm, 3.5 μm) analytical column (Waters, Milford, Massachusetts, USA) was used for compound separation. The temperatures of the column thermostat and the autosampler were set at 25°C and 10°C, respectively. The mobile phase consisted of a mixture of acetonitrile with addition of 0.1% formic acid (solvent A) and water with addition of 0.1% formic acid (solvent B) and was set at a flow rate of 0.6 mL/min. Starting amount of solvent A is 10%, isocratic elution from 0 to 3 min, and then gradient up to 90% of solvent A, and maintained to 10 min, and then gradient down to 10% of solvent A, and maintained to 15 min.
The ion source parameters were as follows: ion spray voltage: 5500 V; nebulizer gas (gas 1): 20 psi; turbo gas (gas 2): 25 psi; temperature of the heated nebulizer: 400°C; curtain gas: 40 psi; collision gas: 6 psi. Mass spectra were acquired by SRM with precursor/predominant product ion transitions for each analyte. The mass spectral Q1→Q3 transitions monitored for AZ-853, AZ-861 and for IS (nebivolol), were m/z 453.9→235.1; 504.3→285.1 and 406.2→151.1, respectively. The peak widths of precursor and product ions were set to 0.7 full width half-height. Quantification was done via peak area ratio.
Pharmacokinetic parameters were calculated by a non-compartmental approach from the average concentration values, using Phoenix WinNonlin software (Certara, Princeton, NJ 08540 USA). First order elimination rate constant (λz) was calculated by linear regression of time versus log concentration. Next, the area under the mean serum and tissue concentration versus time curve (AUC0→t) was estimated using the log-linear trapezoidal rule (1), where Ci is the plasma concentration measured at t1.
AUC0→t=∑i=1n((Ci+Ci+1)/2)∙(ti+1−ti). (1)
Area under the first-moment curve (AUMC0→t) was estimated by calculation of the total area under the first-moment curve using the Eq (2), where Ci is the plasma concentration measured at t1. AUMC0→t=∑i=1n((ti∙Ci+ti+1∙Ci+1)/2)∙(ti+1−ti). […]

[1] = hippocampus, 1.25 mg/kg, read-out: Concentration, hippocampus (individual animals)
[2] = hippocampus, 1.25 mg/kg, read-out: Concentration, hippocampus (Mean)
[3] = plasma, 1.25 mg/kg, read-out: Concentration, plasma (Mean)
[4] = plasma, 1.25 mg/kg, read-out: Concentration, plasma (individual animals)
[5] = striatum, 1.25 mg/kg, read-out: Concentration, striatum (Mean)
[6] = striatum, 1.25 mg/kg, read-out: Concentration, striatum (individual animals)

Question: With `Cn1c(=O)c2c(nc3n(CCCCN4CCN(c5cccc(C(F)(F)F)c5)CC4)ccn23)n(C)c1=O` [AZ-861, 1,3-dimethyl-8-(4-(4-(3-(trifluoromethyl)phenyl)piperazin-1-yl)butyl)-1H-imidazo[2,1-f]purine-2,4(3H,8H)-dione] as the compound, how does the concentration at 5 min [1] read?
Answer: 289 ng/mL

Question: What about the concentration at 15 min [2] of the same compound?
Answer: 307 ng/mL

Question: What about the concentration at 15 min [1] of the same compound?
Answer: 264 ng/mL

Question: What about the concentration at 30 min [2] of the same compound?
Answer: 253 ng/mL

Question: And the concentration at 30 min [1]?
Answer: 245 ng/mL

Question: And the concentration at 60 min [2]?
Answer: 96.9 ng/mL

Question: And the concentration at 60 min [1]?
Answer: 101 ng/mL

Question: What about the concentration at 120 min [2] of the same compound?
Answer: 54.3 ng/mL

Question: What about the concentration at 120 min [1] of the same compound?
Answer: 60.2 ng/mL

Question: What about the concentration at 240 min [2] of the same compound?
Answer: 19.6 ng/mL

Question: What about the concentration at 240 min [1] of the same compound?
Answer: 18.2 ng/mL

Question: What about the concentration at 480 min [2] of the same compound?
Answer: 15.8 ng/mL

Question: And the concentration at 480 min [1]?
Answer: 15.8 ng/mL

Question: And the Cmax (hippocampus, 1.25 mg/kg, read-out: Cmax, hippocampus)?
Answer: 308 ng/g

Question: What about the Tmax (hippocampus, 1.25 mg/kg, read-out: tmax, hippocampus (converted)) of the same compound?
Answer: 15 min

Question: And the CL/F (plasma)?
Answer: 590 mL/min/kg

Question: What about the AUC(0-t) (plasma, read-out: AUC0→t, plasma (converted)) of the same compound?
Answer: 34.5 ng·h/mL

Question: And the MRT (plasma, read-out: MRT, plasma (converted))?
Answer: 52.3 min

Question: And the concentration at 5 min [3]?
Answer: 59.8 ng/mL

Question: And the concentration at 15 min [3]?
Answer: 36.3 ng/mL

Question: What about the concentration at 15 min [4] of the same compound?
Answer: 26.4 ng/mL

Question: What about the concentration at 30 min [3] of the same compound?
Answer: 24.8 ng/mL

Question: And the concentration at 60 min [3]?
Answer: 5.84 ng/mL

Question: What about the concentration at 60 min [4] of the same compound?
Answer: 7.37 ng/mL

Question: And the concentration at 120 min [3]?
Answer: 2.58 ng/mL

Question: And the concentration at 120 min [4]?
Answer: 1.84 ng/mL

Question: What about the concentration at 240 min [3] of the same compound?
Answer: 0.56 ng/mL

Question: And the concentration at 480 min [3]?
Answer: 0.27 ng/mL

Question: What about the concentration at 480 min [4] of the same compound?
Answer: 0.25 ng/mL

Question: And the Vd/F (plasma, 1.25 mg/kg, plasma, read-out: Vd/F)?
Answer: > 84 L/kg

Question: What about the Cmax (plasma, 1.25 mg/kg, read-out: Cmax, plasma) of the same compound?
Answer: 59.6 ng/mL

Question: And the Tmax (plasma, 1.25 mg/kg, read-out: tmax, plasma)?
Answer: ≤ 5 min

Question: What about the Kp (striatum, ratio of AUC values, read-out: Brain structure-to-plasma concentration ratio, striatum (S/P)) of the same compound?
Answer: 8.97

Question: What about the AUC(0-t) (striatum, read-out: AUC0→t, striatum (converted)) of the same compound?
Answer: 309 ng·h/mL

Question: And the MRT (striatum, read-out: MRT, striatum (converted))?
Answer: 56.9 min

Question: What about the concentration at 5 min [5] of the same compound?
Answer: 181 ng/mL

Question: And the concentration at 5 min [6]?
Answer: 190 ng/mL

Question: What about the concentration at 15 min [5] of the same compound?
Answer: 334 ng/mL

Question: And the concentration at 15 min [6]?
Answer: 377 ng/mL

Question: And the concentration at 30 min [5]?
Answer: 305 ng/mL

Question: What about the concentration at 30 min [6] of the same compound?
Answer: 341 ng/mL

Question: And the concentration at 60 min [5]?
Answer: 58.1 ng/mL

Question: And the concentration at 60 min [6]?
Answer: 61.6 ng/mL

Question: And the concentration at 120 min [5]?
Answer: 25.6 ng/mL

Question: What about the concentration at 120 min [6] of the same compound?
Answer: 28.4 ng/mL

Question: And the concentration at 240 min [5]?
Answer: 5.89 ng/mL

Question: What about the concentration at 240 min [6] of the same compound?
Answer: 6.95 ng/mL

Question: And the concentration at 480 min [5]?
Answer: 1.86 ng/mL

Question: What about the concentration at 480 min [6] of the same compound?
Answer: 1.65 ng/mL

Question: And the Cmax (striatum, 1.25 mg/kg, read-out: Cmax, striatum)?
Answer: 333 ng/g

Question: And the Tmax (striatum, 1.25 mg/kg, read-out: tmax, striatum (converted))?
Answer: 15 min
